Reference: patent publication US20090035306A1 (KALYPSYS, INC., priority 2006, published 2009)

target: T1, human TGR5 (Homo sapiens, UniProt Q8TDU6); experiment: cAMP production assay in HEK293 cells stably expressing TGR5 (LANCE TR-FRET); assay type: cell-based; details: 30 minutes stimulation, read-out: cAMP Production in 293-TGR5 Cells EC50
T1 construct: expressed in transfected cells
T1 sequence (Q8TDU6 1-330): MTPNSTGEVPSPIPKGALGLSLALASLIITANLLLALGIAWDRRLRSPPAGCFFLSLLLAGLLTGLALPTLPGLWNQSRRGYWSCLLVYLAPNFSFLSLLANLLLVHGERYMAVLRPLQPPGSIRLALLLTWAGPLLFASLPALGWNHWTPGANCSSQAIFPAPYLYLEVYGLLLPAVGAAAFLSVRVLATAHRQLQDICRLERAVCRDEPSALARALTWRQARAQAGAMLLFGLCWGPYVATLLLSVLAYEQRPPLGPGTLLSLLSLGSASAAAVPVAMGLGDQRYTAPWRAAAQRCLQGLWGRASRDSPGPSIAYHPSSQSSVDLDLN
How it was run: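 HEK293 cells stably transfected with human TGR5, incubated overnight in DMEM with 0.1% FBS, then given IBMX (1 mM final) and stimulated with compounds for 30 minutes. cAMP measured by LANCE TR-FRET after 1-7 h detection at room temperature. EC50 values reported as ≦10 μM (+) or >10 μM (−).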

Structure (SMILES)	EC50
O=c1c2ccccc2nc(CCc2ccccc2)n1NCc1ccc(F)cc1F [Example 16, 3-(2,4-difluorobenzylamino)-2-phenethylquinazolin-4(3H)-one]	≤ 10 µM
O=c1c2ccccc2nc(-c2ccccc2C(F)(F)F)n1NCc1ccc(Br)cc1 [Example 8, 3-(4-bromobenzylamino)-2-(2(trifluoromethyl)phenyl)quinazolin-4(3H)-one]	≤ 10 µM
O=c1c2ccccc2nc(-c2cccs2)n1NCc1ccc(Br)cc1 [Example 86, 3-(4-bromobenzylamino)-2-(thiophen-2-yl)quinazolin-4(3H)-one]	≤ 10 µM
Cc1cccc2c(=O)n(NCc3ccc(Br)cc3)c(-c3ccc(F)cc3)nc12 [Example 70, 3-(4-bromobenzylamino)-2-(4-fluorophenyl)-8-methylquinazolin-4(3H)-one]	≤ 10 µM

Second part, the compound after the results:

EC50	Structure (SMILES)
≤ 10 µM	O=c1c2ccccc2nc(-c2cccc(F)c2)n1NCc1ccc(F)c(C(F)(F)F)c1 [Example 107, 3-(4-fluoro-3-(trifluoromethyl)benzylamino)-2-(3-fluorophenyl)quinazolin-4(3H)— one]
≤ 10 µM	O=c1c2ccccc2nc(-c2cccs2)n1NCc1ccc(C(F)(F)F)cc1 [Example 87, 2-(thiophen-2-yl)-3-(4-(trifluoromethyl)benzylamino)quinazolin-4(3H)-one]
≤ 10 µM	O=c1c2cc(F)ccc2nc(-c2cccc(F)c2)n1NCc1ccc(Br)cc1 [Example 106, 3-(4-bromobenzylamino)-6-fluoro-2-(3-fluorophenyl)quinazolin-4(3H)-one]
